Laboratory results taken from patent publication US20120087864A1, “METHOD FOR DIAGNOSING AND/OR EVALUATING RETINAL DISEASE” (R-TECH UENO, LTD., priority 2010, published 2012).
Where “and” joins values, the source holds several entries; their conditions need not be identical. Identical values can stand only once. Marks after values point to notes of the source that are not given here.

Legend:
[1] = system: patient with retinal pigmentosa; experiment: Distribution of MP-1 central 2 degrees retinal sensitivity change by concentration of metabolite A in plasma (LC/MS/MS); format: in vivo, human; conditions: instillation group
Protocol: Concentration of drug in plasma (20 week after the initiation of test drug administration, the concentration of the drug in plasma after 15 minutes had passed since instillation of the second drop). Evaluate items: The concentration of isopropyl unoprostone and its metabolite A (free carboxylic acid of isopropyl unoprostone in plasma was measured.)
Twenty weeks after the initiation of the test drug administration in Test Example 1, the concentration of the drug in plasma was measured after 15 minutes had passed since instillation of the second drop.
Evaluation item: concentration of metabolite A (free carboxylic acid of isopropyl unoprostone) in plasma Measuring method: Twenty weeks after initiation of test drug administration, samples were obtained by drawing 4 ml of blood per time after 15 minutes had passed since instillation of the second drop, and then the concentration of the metabolite A in plasma was measured by liquid chromatogram/Tandem mass spectrometer (LC/MS/MS) using a portion of the measuring samples. Measuring apparatus: liquid chromatograph/Tandem mass spectrometer (LC/MS/MS) [High-performance liquid chromatography system (SHIMADZU 20A, manufactured by Shimadzu Corporation) Analysis column: Develosil ODS-UG-3 (2.0 mm I.D.×50 mm, 3 μm, manufactured by Nomura Chemical Co., Ltd.) Column temperature: 35° C. Injection amount: 20 μL Mobile phase A: acetonitrile/10 mmol/L ammonium acetate solution/acetic acid (20:80:0.1, v/v/v) Mobile phase B: acetonitrile/acetic acid (100:0.1, v/v) Needle wash: Methanol Flow rate: 0.25 mL/minute Mass spectrometry (API 4000, manufactured by Applied Biosystems)] Ionization method: ESI method (Turbo ion spray, 350° C.) […] Internal standard substance: 17,20-dimethyl PGF1α
In order to evaluate a correlation of the change value (24 weeks) of average retinal sensitivity by MP-1 in central 2 degrees (4 points) with the concentration of metabolite A in plasma of the isopropyl unoprostone instillation group, when the change value (24 weeks) of average retinal sensitivity by MP-1 in central 2 degrees (4 points) was a positive value, it was classified as “improvement”. In contrast, when the change value was zero and a negative value, it was classified as “non-improvement”. Furthermore, each concentration of metabolite A in plasma (1 ng/mL, 2 ng/mL, 2.5 ng/mL and 3 ng/mL) was regarded as a boundary concentration, distribution of the change value (24 weeks) by MP-1 in central 2 degrees (4 points) average retinal sensitivity was confirmed.

[2] = system: patient with retinal pigmentosa; experiment: MP-1 microperimeter retinal sensitivity of central 2 degrees (4 points); format: in vivo, human; conditions: 0.15% solution twice a day; for average retinal sensitivity by MP-1 in central 2 degrees (4 points), change value: change from 0 week
Protocol: One drop or two drops of isopropyl unoprostone 0.15 w/v % ophthalmic solution per one time was administered to each eye of patient with retinal pigmentosa daily for 24 weeks, and the following items were examined. 112 patients participated this test.
Using an combined equipment having a retinal camera and an automatic perimeter, retinal sensitivity of measurement points set preliminarily on the eyeground retina was automatically measured. The feature of MP-1 is that tracking can be automatically performed according to the eye movement, and retinal sensitivity of a local part of the eyeground can be accurately measured by correcting a gap detected during a test. Also, it is possible to serially measure retinal sensitivity at the same site of the eyeground since a test can be performed at the same measurement point of retina as that of the previous test.
Change in retinal sensitivity of central 2 degrees (4 points) through MP-1 microperimeter
The value of the average retinal sensitivity by MP-1 in central 2 degrees (4 points) changed from the value at the time of completion of the pre-observation period (0 week) at each measurement time point (time of hospital visiting of subject) was calculated in each eye.
The retinal sensitivity by MP-1 central 2 degrees (4 points) was measured at a pre-observation period, after 4 weeks, after 8 weeks, after 16 weeks and after 24 weeks. It is estimated that variation (error) due to seasonal variation during measuring for 24 weeks may arise. For the purpose of absolutely evaluating the effect of the drug, in order to grasp an overview including negation of both improvement and aggravation, between-group comparison was made by adding up of a difference (change value) with the pre-observation period in four measurements.

[3] = metabolite A in plasma 1.0 ng/mL or more
[4] = metabolite A in plasma 2.0 ng/mL or more
[5] = metabolite A in plasma 2.5 ng/mL or more
[6] = metabolite A in plasma 3.0 ng/mL or more
[7] = metabolite A in plasma less than 1.0 ng/mL
[8] = metabolite A in plasma less than 2.0 ng/mL
[9] = metabolite A in plasma less than 2.5 ng/mL
[10] = metabolite A in plasma less than 3.0 ng/mL
[11] = one drop per time group, after 24 weeks
[12] = two drops per time group, after 24 weeks

CCCCCCCC(=O)CC[C@@H]1[C@@H](C/C=C\CCCC(=O)OC(C)C)[C@@H](O)C[C@H]1O [isopropyl unoprostone, (+)-isopropyl (Z)-7-[(1R,2R,3R,5S)-3,5-dihydroxy-2-(3-oxodecyl)cyclopentyl]hept-5-enoate]
number of improved cases (MP-1 central 2 degrees change value, 24 weeks, positive) [1, 3]: 33 | number of non-improved cases [1, 3]: 18 | ratio of improved cases [1, 3]: (64.7%) | ratio of non-improved cases [1, 3]: (35.3%) | number of improved cases (MP-1 central 2 degrees change value, 24 weeks, positive) [1, 4]: 16 | number of non-improved cases [1, 4]: 8 | ratio of improved cases [1, 4]: (66.7%) | ratio of non-improved cases [1, 4]: (33.3%) | number of improved cases (MP-1 central 2 degrees change value, 24 weeks, positive) [1, 5]: 12 | number of non-improved cases [1, 5]: 2 | ratio of improved cases [1, 5]: (85.7%) | ratio of non-improved cases [1, 5]: (14.3%) | number of improved cases (MP-1 central 2 degrees change value, 24 weeks, positive) [1, 6]: 9 | number of non-improved cases [1, 6]: 1 | ratio of improved cases [1, 6]: (90.0%) | ratio of non-improved cases [1, 6]: (10.0%) | number of improved cases (MP-1 central 2 degrees change value, 24 weeks, positive) [1, 7]: 11 | number of non-improved cases [1, 7]: 11 | ratio of improved cases [1, 7]: (50.0%) | ratio of non-improved cases [1, 7]: (50.0%) | number of improved cases (MP-1 central 2 degrees change value, 24 weeks, positive) [1, 8]: 28 | number of non-improved cases [1, 8]: 21 | ratio of improved cases [1, 8]: (57.1%) | ratio of non-improved cases [1, 8]: (42.9%) | number of improved cases (MP-1 central 2 degrees change value, 24 weeks, positive) [1, 9]: 32 | number of non-improved cases [1, 9]: 27 | ratio of improved cases [1, 9]: (54.2%) | ratio of non-improved cases [1, 9]: (45.8%) | number of improved cases (MP-1 central 2 degrees change value, 24 weeks, positive) [1, 10]: 35 | number of non-improved cases [1, 10]: 28 | ratio of improved cases [1, 10]: (55.6%) | ratio of non-improved cases [1, 10]: (44.4%) | MP-1 central 2 degrees (4 points) average retinal sensitivity: aggravation by 4 dB or more, number of cases (%) [2, 11]: 6 (15.8%) cases (%) | MP-1 central 2 degrees (4 points) average retinal sensitivity: improvement by 4 dB or more, number of cases (%) [2, 11]: 3 (7.9%) cases (%) | MP-1 central 2 degrees (4 points) average retinal sensitivity: no change, number of cases (%) [2, 11]: 29 (76.3%) cases (%) | average retinal sensitivity by MP-1 in central 2 degrees (4 points), change value ([2]; two drops per time group, after 4 weeks): 0.5 dB | average retinal sensitivity by MP-1 in central 2 degrees (4 points), change value ([2]; two drops per time group, after 8 weeks): 1.013 dB | average retinal sensitivity by MP-1 in central 2 degrees (4 points), change value ([2]; two drops per time group, after 16 weeks): 0.713 dB | MP-1 central 2 degrees (4 points) average retinal sensitivity: aggravation by 4 dB or more, number of cases (%) [2, 12]: 1 (2.6%) cases (%) and 1 (2.9%)* cases (%) | MP-1 central 2 degrees (4 points) average retinal sensitivity: improvement by 4 dB or more, number of cases (%) [2, 12]: 6 (17.1%) cases (%) | MP-1 central 2 degrees (4 points) average retinal sensitivity: no change, number of cases (%) [2, 12]: 28 (80.0%) cases (%) | average retinal sensitivity by MP-1 in central 2 degrees (4 points), change value [2, 12]: 1.1^† dB | average retinal sensitivity by MP-1 in central 2 degrees (4 points), comparison of change value ([2]; two drops per time group, change values of four measurements (4, 8, 16, 24 weeks) added up): 0.826* dB
